Values after ≈ are worked out from the molar mass of the structure shown.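 48-hour exposure; five concentrations; linearly interpolated endpoints. GI50: concentration for 50% inhibition of growth. TGI: concentration producing complete growth inhibition.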
Tests used:
Experiment in all cases: NCI-60 cell line screen, 48 h
HOP-18 NSCLC = test system: HOP-18 NSCLC
LXFL 529 NSCLC = test system: LXFL 529 NSCLC
RXF-631 renal = test system: RXF-631 renal
SNB-78 CNS = test system: SNB-78 CNS
XF 498 CNS = test system: XF 498 CNS
DMS 114 small cell lung = test system: DMS 114 small cell lung
MDA-N = test system: MDA-N

SMILES	TGI (HOP-18 NSCLC)	TGI (LXFL 529 NSCLC)	TGI (RXF-631 renal)	TGI (SNB-78 CNS)	TGI (XF 498 CNS)	TGI (DMS 114 small cell lung)	TGI (MDA-N)	GI50 (MDA-N)
[O-][n+]1c2cc(CN3CCOCC3)c(CN3CCOCC3)cc2[n+]([O-])c2c(O)cccc21	18.6 µM	7.73 µM	> 55.9 µM	21.9 µM	7.42 µM	–	–	–
N#CC(C(=O)CCC(=O)Nc1ccc(Cl)c(Cl)c1)c1ccc(Cl)cc1 (centres undefined)	> 100 µM	> 100 µM	> 100 µM	> 100 µM	–	> 100 µM	–	–
O=C(NC1C=Nc2ccccc2NC1=O)c1ccccc1Cl (centres undefined)	> 100 µM	> 100 µM	> 100 µM	> 100 µM	> 100 µM	> 100 µM	–	–
O=S(=O)(N/N=C/c1ccc(Cl)cc1Cl)c1ccccc1	> 100 µM	> 100 µM	> 100 µM	> 100 µM	> 100 µM	89.9 µM	–	–
NS(=O)(=O)c1ccc(NC(=O)c2cccc3c(Nc4ccc(S(N)(=O)=O)cc4)c4ccccc4nc23)cc1	> 100 µM	85.9 µM	11.1 µM	> 100 µM	74.6 µM	> 100 µM	–	–
COc1ccc(/C=N\O[Si](C)(C)C(C)(C)C)cc1O[Si](C)(C)C(C)(C)C	31.1 µM	29.9 µM	37.4 µM	36.1 µM	32.7 µM	35.6 µM	–	–
c1ccc2c(CN3CCC(C4CCN(Cc5cccc6ccccc56)CC4)CC3)cccc2c1	> 100 µM	21.8 µM	35.5 µM	73.7 µM	10.4 µM	6.76 µM	25.2 µM	–
O=c1cc(-c2ccc(O)cc2)oc2cc(O)cc(O)c12	–	37.3 µM	–	39.5 µM	61.6 µM	> 100 µM	–	–
CCCCCCCCCCCCCCCCCc1nnc(N)o1	–	> 100 µM	> 100 µM	> 100 µM	> 100 µM	–	–	–
O=C(O)c1cc(=O)c2cc(C(=O)c3cccs3)c(Cl)c(Cl)c2o1	–	> 100 µM	–	> 100 µM	–	–	–	–
COc1cc2nncc(SCc3ccc(Cl)c(Cl)c3)c2cc1OC	> 100 µM	> 100 µM	> 100 µM	> 100 µM	81.3 µM	> 100 µM	> 100 µM	–
COc1cc(-c2oc3c(OC)c(O)cc(O)c3c(=O)c2OC)ccc1O	–	–	–	–	–	–	59.5 µM	–
COC1OC(C(C)O)C2OC(C)(C)OC12 (centres undefined)	–	–	–	–	–	–	> 100 µM	–
O=C(CC(=O)C1CCOC1=O)C(=O)Nc1ccc(Cl)cc1 (centres undefined)	–	> 100 µM	> 100 µM	> 100 µM	–	> 100 µM	–	–
Cc1ccc([N+](=O)[O-])c2c(NCCC[N+](C)(C)[O-])ccnc12	–	–	–	–	–	–	> 100 µM	–
COc1cc2c3cc1Oc1c(OC)c(OC)cc4c1C(Cc1ccc(cc1)Oc1cc(ccc1O)CC3N(C)CC2)N(C)CC4 (centres undefined)	> 100 µM	27.8 µM	–	64.6 µM	–	24.8 µM	17 µM	–
Clc1ccc(/C=C/c2nc(Cl)c(-c3ccc(Cl)cc3)c(Cl)n2)cc1	–	–	–	–	–	–	> 100 µM	–
COc1ccc(C=C2C(=O)NC(=O)NC2=O)cc1OCc1ccccc1	–	–	–	–	–	–	32.7 µg/mL	14.8 µg/mL (≈ 41.9 µM)
NC(=O)N/N=C(\CCC(=O)N(Cc1ccccc1)Cc1ccccc1)CC(=O)c1ccc(F)cc1	> 100 µM	> 100 µM	> 100 µM	> 100 µM	–	> 100 µM	–	–
COC(=O)c1nc(N)nc(C(=O)OC)c1C(=O)c1ccccc1	> 100 µM	> 100 µM	> 100 µM	–	> 100 µM	> 100 µM	–	–
COC1(Cc2ccccc2)C(=O)c2ccccc2N1C(C)=O (centres undefined)	> 100 µM	> 100 µM	> 100 µM	> 100 µM	> 100 µM	> 100 µM	–	–

Reference: PubChem BioAssay (NCI)
